Data on 11 molecules can be found in patent publication US11691962B2 (eXIthera Pharmaceuticals, Inc., priority 2018, dated 2023).

The solubility is the dissolved amount per volume that the medium holds. The low end stands for little dissolved substance, the high end for much dissolved substance.

The subject of one series is Trypsin. The series is described as follows: Dose response assay for protease inhibitors: trypsin. Format: biochemical. Particulars: selectivity, trypsin over Factor XIa. In short, it runs like this:
(§1)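 Glp-Pro-Arg-AMC substrate (thrombin, trypsin) or Pro-Phe-Arg-AMC/Boc-Leu-Gly-Arg-AMC (Factor Xa), diluted to 100 μM, in 20 mM Hepes pH 7.4, 150 mM NaCl, 0.02% Tween 20; enzyme diluted to 0.5 nM before addition. Two-fold serial compound dilutions; kinetic reads at 30° C. Data yield IC50 and Kon.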

The nature of series [1]: Plasma protein binding by equilibrium dialysis. Format: in vitro ADME. Particulars: both sexes, pH 7.4, pooled human plasma, 4 hours at 37° C., read-out: PPB (%). How it is done: The following procedure was used to determine the plasma protein binding of a test compound in pooled plasma from human (mixed gender) via equilibrium dialysis in a 96-well plate format. The dialysate compartment was loaded with phosphate-buffered saline (pH 7.4) and the sample side was loaded with plasma spiked with the test compound at a concentration of 10 μM. After loading, samples were covered and incubated for 4 hours at 37° C. After incubation, each compartment was sampled, diluted with acetonitrile/buffer and centrifuged. The supernatants were analyzed by HPLC-MS/MS. The analyte peak areas obtained from HPLC-MS/MS analysis of each sample were used to calculate protein binding according to the following equation (Equation 4):
[formula] where: AREAp=Peak area of analyte in protein matrix; AREAb=Peak area of analyte in buffer.
The amount measured in the plasma compartment included both free and bound drug, while that on the buffer side represented free drug only; the differences were used to calculate the percentage plasma protein bound. Three reference compounds were tested in each assay: acebutolol, quinidine and warfarin.
In general terms: Equilibrium dialysis compares concentrations on both sides of a semipermeable membrane.

The nature of series [2]: Metabolic stability in dog hepatocytes. Particulars: pooled cryopreserved hepatocytes; beagle dog hepatocytes, 2 μM compound; read-out: Dog Hepatocyte Stability (t1/2). Format: in vitro ADME. The method, then: The following procedure was used to determine the stability of test compounds in beagle dog hepatocytes in a 96-well plate format. The test compounds, including the controls, imipramine and 7-ethoxycoumarin, were dissolved at 10 mM in DMSO, followed by further 5-fold dilution with DMSO to 2 mM. Pooled cryopreserved beagle dog hepatocytes were thawed and transferred into complete medium. Cells were gently centrifuged (700 rpm for 5 min) and the pellet rinsed with KHB (Krebs Henseleit buffer). Cells were resuspended, counted using Trypan blue, and adjusted to 1 million cells/mL in KHB buffer. The 2 mM compound stock solutions were diluted 10-fold with acetonitrile, followed by a further 50-fold dilution with KHB buffer. 200 μL of these compound solutions were transferred to 96-well polypropylene assay plates and an equal volume of the hepatocyte solution was added and mixed to initiate the reaction (final assay concentrations were 2 μM compound and 500,000 cells/mL). Assay plates were incubated at 37° C. in 5% CO2 with gentle agitation. 50 μL aliquots were removed at multiple time points out to 180 minutes and quenched with 6 volumes of cold acetonitrile (containing 250 ng/mL of carbutamide and chrysin as internal standards) to terminate the reaction and precipitate protein. Quenched samples were maintained on ice. The quenched samples were centrifuged at 2000×g (3100 rpm) for 10 minutes at 4° C. 50 μL aliquots of the supernatants were removed and diluted with 100 μL Milli-Q water to reduce the % organic content prior to bioanalysis by LC-MS/MS. Peak areas corresponding to the test compound were recorded. The compound remaining was calculated by comparing the peak area at each time point to time zero. Data were analyzed and results were calculated using Microsoft Excel 2010.

The target in the next series is Thrombin (Homo sapiens (Human), UniProt P00734). The series is described as follows: Dose response assay for protease inhibitors: thrombin. The class given is biochemical. Particulars: selectivity, thrombin over Factor XIa. In short, it runs like this:
as §1

Series [3] in a line: Aqueous solubility in PBS by HPLC-UV/VIS. Format: physicochemical. The conditions noted are these: PBS pH 7.4, 2% DMSO, 24 h at room temperature; for solubility at 24 h: phosphate buffered saline, aqueous buffer, kinetic from dmso stock. The method, then:
The following procedure was used to determine the aqueous solubility of a test compound in phosphate buffered saline (PBS-NaCl 137 mM, KCl 2.7 mM, Na2HPO4 8.1 mM, KH2PO4 1.5 mM, pH 7.4) in 96-well plate format by HPLC-UV/VIS analysis. The test compound was prepared at 200 μM in PBS from a 10 mM DMSO stock solution. The final DMSO concentration was 2%. The PBS buffer samples were mixed thoroughly followed by incubation at room temperature for 24 h. At the end of the incubation, the PBS buffer samples were centrifuged and supernatants analyzed by HPLC. The aqueous solubility (μM) of the test compound in PBS was determined by comparing the peak area of the principal peak in the calibration standard (200 μM) with the peak area of the corresponding peak in each of the PBS samples. The range of the assay was approximately 0.5 μM to 200 μM. The reference compounds used in each assay were metoprolol, rifampicin, ketoconazole, phenytoin, haloperidol, simvastatin, diethylstilbestrol, and tamoxifen ranking from fully soluble (200 μM) to poorly soluble (<1 μM).

As for `CC[C@@H](NC(=O)N1C(=O)[C@H](Cc2ccnc(N)c2)[C@H]1C(=O)N(C)c1ccn(C)n1)c1ccccc1` [Compound 1-3, (2S,3R)-3-((2-aminopyridin-4-yl)methyl)-N2-(1-methyl-1H-pyrazol-3-yl)-N1-((R)-1-phenylpropyl)-N2-methyl-4-oxoazetidine-1,2-dicarboxamide], in the series on Trypsin, the “Ratio: Trypsin/FXIa” value is “G (“G” indicates 1-100)”. Besides, in series [1], the fraction unbound at 4 h, 10 μM was 0.1 to 0.5. Also, the half-life at 2 μM in series [2] is greater than 4 h. Besides, the “Ratio: Thrombin/FXIa” value at Thrombin is “H (“H” indicates 101-1000)”. The same molecule displayed a solubility at 24 h in series [3] greater than 100 µM.
Consider `CC[C@@H](NC(=O)N1C(=O)[C@H](Cc2ccnc(N)c2)[C@H]1C(=O)N(C)c1ccnn1C)c1cccc(Cl)c1` [Compound 1-4, (2S,3R)-3-((2-aminopyridin-4-yl)methyl)-N2-(1-methyl-1H-pyrazol-5-yl)-N1-((R)-1-(3-chlorophenyl)propyl)-N2-methyl-4-oxoazetidine-1,2-dicarboxamide], for which, in the series on Trypsin, the “Ratio: Trypsin/FXIa” value is recorded as “G (“G” indicates 1-100)”. Also, in series [1], the fraction unbound at 4 h, 10 μM fell in the range of 0.1 to 0.5. For the same molecule, the half-life at 2 μM in series [2] is 1.02 to 2 h. Besides, the “Ratio: Thrombin/FXIa” value at Thrombin is recorded as “I (“I” indicates > 500)”. Besides, the solubility at 24 h in series [3] is greater than 100 µM.
`CC[C@@H](NC(=O)N1C(=O)[C@H](Cc2ccnc(N)c2)[C@H]1C(=O)N(C)c1cscn1)c1ccccc1` [Compound 1-8, (2S,3R)-3-((2-aminopyridin-4-yl)methyl)-N2-(4-thiazolyl)-N1-((R)-1-phenylpropyl)-N2-methyl-4-oxoazetidine-1,2-dicarboxamide]: in the series with Trypsin, the “Ratio: Trypsin/FXIa” value is given as “G (“G” indicates 1-100)”. Besides, the fraction unbound at 4 h, 10 μM in series [1] lay within 0.1 to 0.5. Also, the half-life at 2 μM in series [2] was greater than 4 h. For the same molecule, the “Ratio: Thrombin/FXIa” value at Thrombin is reported as “G (“G” indicates 1-100)”. This molecule had a solubility at 24 h in series [3] greater than 100 µM.
Take `CC[C@@H](NC(=O)N1C(=O)[C@H](Cc2ccnc(N)c2)[C@H]1C(=O)N(C)c1cccs1)c1ccccc1` [Compound 1-10, (2S,3R)-3-((2-aminopyridin-4-yl)methyl)-N2-(thiophen-2-yl)-N1-((R)-1-phenylpropyl)-N2-methyl-4-oxoazetidine-1,2-dicarboxamide]: the “Ratio: Trypsin/FXIa” value in the series on Trypsin is given as “G (“G” indicates 1-100)”. The fraction unbound at 4 h, 10 μM in series [1] lay within 0.05 to 0.09. Besides, the half-life at 2 μM in series [2] is less than 1 h. On Thrombin, the “Ratio: Thrombin/FXIa” value is listed as “H (“H” indicates 101-1000)”. Besides, in series [3], the solubility at 24 h is greater than 100 µM.
With `CC[C@@H](NC(=O)N1C(=O)[C@H](Cc2ccnc(N)c2)[C@H]1C(=O)N(C)c1nccn1C)c1ccccc1` [Compound 1-13, (2S,3R)-3-((2-aminopyridin-4-yl)methyl)-N2-(1-methyl-1H-imidazol-2-yl)-N1-((R)-1-phenylpropyl)-N2-methyl-4-oxoazetidine-1,2-dicarboxamide], the “Ratio: Trypsin/FXIa” value in the series with Trypsin is reported as “G (“G” indicates 1-100)”. Further, the fraction unbound at 4 h, 10 μM in series [1] was 0.1 to 0.5. For the same molecule, in series [2], the half-life at 2 μM lay in the range of 2.02 to 4 h. Further, on Thrombin, the “Ratio: Thrombin/FXIa” value is on record as “I (“I” indicates > 500)”. This molecule had a solubility at 24 h in series [3] greater than 100 µM.
On the same counts, the results for `CC[C@@H](NC(=O)N1C(=O)[C@H](Cc2cc(C)nc(N)c2)[C@H]1C(=O)N(C)c1cnn(C)c1)c1cccc(Cl)c1` [Compound 1-15, (2S,3R)-3-((2-amino-6-methylpyridin-4-yl)methyl)-N2-(1-methyl-1H-pyrazol-4-yl)-N1-((R)-1-(3-chlorophenyl)propyl)-N2-methyl-4-oxoazetidine-1,2-dicarboxamide] are “G (“G” indicates 1-100)”, 0.1 to 0.5, greater than 4 h, “G (“G” indicates 1-100)” and greater than 100 µM.
`CC[C@@H](NC(=O)N1C(=O)[C@H](Cc2ccnc(N)c2)[C@H]1C(=O)N(C)c1cscn1)c1cccc(Cl)c1` [Compound 1-17, (2S,3R)-3-((2-aminopyridin-4-yl)methyl)-N2-(4-thiazolyl)-N1-((R)-1-(3-chlorophenyl)propyl)-N2-methyl-4-oxoazetidine-1,2-dicarboxamide]: the “Ratio: Trypsin/FXIa” value with Trypsin was “G (“G” indicates 1-100)”. For the same molecule, in series [1], the fraction unbound at 4 h, 10 μM lay within 0.05 to 0.09. In addition, in series [2], the half-life at 2 μM was in the range of 1.02 to 2 h. In addition, on Thrombin, the “Ratio: Thrombin/FXIa” value is “H (“H” indicates 101-1000)”. Further, in series [3], the solubility at 24 h was greater than 100 µM.
For the molecule `CC[C@@H](NC(=O)N1C(=O)[C@H](Cc2ccnc(N)c2)[C@H]1C(=O)N(C)c1cnn(C)c1)c1ccc(C)nc1` [Compound 1-18, (2S,3R)-3-((2-aminopyridin-4-yl)methyl)-N2-(1-methyl-1H-pyrazol-4-yl)-N1-((R)-1-(6-methylpyridin-3-yl)propyl)-N2-methyl-4-oxoazetidine-1,2-dicarboxamide], the “Ratio: Trypsin/FXIa” value with Trypsin is “G (“G” indicates 1-100)”. The fraction unbound at 4 h, 10 μM in series [1] was less than 0.5. Further, the half-life at 2 μM in series [2] was in the range of 2.02 to 4 h. Also, the “Ratio: Thrombin/FXIa” value at Thrombin is on record as “G (“G” indicates 1-100)”. Moreover, the solubility at 24 h in series [3] is greater than 100 µM.
For the molecule `CC[C@@H](NC(=O)N1C(=O)[C@H](Cc2cc(C)nc(N)c2)[C@H]1C(=O)N(C)c1ccn(C)n1)c1cccc(C)c1` [Compound 1-22, (2S,3R)-3-((2-amino-6-methylpyridin-4-yl)methyl)-N2-(1-methyl-1H-pyrazol-3-yl)-N1-((R)-1-(3-methylphenyl)propyl)-N2-methyl-4-oxoazetidine-1,2-dicarboxamide], the “Ratio: Trypsin/FXIa” value in the series with Trypsin is “G (“G” indicates 1-100)”. Also, in series [1], the fraction unbound at 4 h, 10 μM lay within 0.1 to 0.5. Further, in series [2], the half-life at 2 μM lay in the range of 2.02 to 4 h. Besides, on Thrombin, the “Ratio: Thrombin/FXIa” value was “H (“H” indicates 101-1000)”. In series [3], this molecule came in with a solubility at 24 h greater than 100 µM.
For `CN(C(=O)[C@@H]1[C@@H](Cc2ccnc(N)c2)C(=O)N1C(=O)N[C@@H](C1CCCCC1)C(F)(F)F)c1ccn(C)n1` [Compound 1-32, (2S,3R)-3-((2-aminopyridin-4-yl)methyl)-N2-(1-methyl-1H-pyrazol-3-yl)-N1-((S)-1-cyclohexyl-2,2,2-trifluoroethyl)-N2-methyl-4-oxoazetidine-1,2-dicarboxamide], the “Ratio: Trypsin/FXIa” value with Trypsin is “G (“G” indicates 1-100)”. Besides, the fraction unbound at 4 h, 10 μM in series [1] was in the range of 0.05 to 0.09. For the same molecule, in series [2], the half-life at 2 μM was less than 1 h. For the same molecule, the “Ratio: Thrombin/FXIa” value at Thrombin is on record as “H (“H” indicates 101-1000)”. The solubility at 24 h in series [3] was greater than 100 µM.
As for “(2S,3R)-3-((2-amino-6-methylpyridin-4-yl)methyl)-N2-(1-methyl-1H-imidazol-2-yl)-N1-((R)-1-(3-fluorophenyl)propyl)-N2-methyl-4-oxoazetidine-1,2-dicarboxamide [Compound 1-120]”, the “Ratio: Trypsin/FXIa” value with Trypsin was “G (“G” indicates 1-100)”. For the same molecule, the “Ratio: Thrombin/FXIa” value at Thrombin is “H (“H” indicates 101-1000)”. Besides, the “Aqueous Solubility (uM, in PBS)” value in series [3] is “W (“W” indicates > 100 μM)”.
